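Cultured in 96-well plates, cells were exposed to test compound for 48 hours across five concentrations. Definition used: TGI = concentration required for complete inhibition of growth.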
Experiments:
Experiment in all cases: NCI tumour cell line growth inhibition, 48 h
[1] = system: SF-539 CNS
[2] = system: NCI/ADR-RES ovarian
[3] = system: IGROV1 ovarian
[4] = system: SK-MEL-2 melanoma
[5] = system: SK-MEL-5 melanoma
[6] = system: NCI-H522 lung
[7] = system: SK-OV-3 ovarian
[8] = system: SK-MEL-28 melanoma
[9] = system: EKVX NSCLC
[10] = system: SNB-75 CNS
[11] = system: NCI-H226 lung
[12] = system: SR leukemia
[13] = system: SNB-19 CNS
[14] = system: OVCAR-4 ovarian
[15] = system: CAKI-1 renal
[16] = system: HCC-2998 colon
[17] = system: A549 NSCLC
[18] = system: UO-31 renal
[19] = system: UACC-62 melanoma
[20] = system: K-562 leukemia
[21] = system: MALME-3M melanoma
[22] = system: HOP-92 NSCLC
[23] = system: NCI-H23 lung
[24] = system: NCI-H460 lung
[25] = system: MDA-N
[26] = system: LOX IMVI melanoma
[27] = system: OVCAR-3 ovarian
[28] = system: CCRF-CEM leukemia
[29] = system: MDA-MB-435
[30] = system: RPMI-8226 leukemia
[31] = system: ACHN renal
[32] = system: T-47D breast
[33] = system: MDA-MB-231 breast
[34] = system: SF-295 CNS
[35] = system: PC-3 prostate
[36] = system: TK-10 renal
[37] = system: SF-268 CNS
[38] = system: A498 renal
[39] = system: BT-549 breast
[40] = system: HCT-15 colon
[41] = system: MCF7 breast
[42] = system: OVCAR-8 ovarian
[43] = system: RXF 393 renal
[44] = system: U251 CNS
[45] = system: HT29 colon
[46] = system: COLO 205 colon
[47] = system: HCT-116 colon
[48] = system: KM12 colon
[49] = system: HOP-62 NSCLC
[50] = system: M14 melanoma
[51] = system: UACC-257 melanoma
[52] = system: 786-0 renal
[53] = system: OVCAR-5 ovarian
[54] = system: SN12C renal
[55] = system: DU-145 prostate
[56] = system: MOLT-4 leukemia
[57] = system: SW-620 colon
[58] = system: HL-60(TB) leukemia
[59] = system: HS 578T breast

With `COC(=O)c1c(-c2ccccc2)c2sc3ccccc3n2c1N` as the compound, how does the TGI [1] read?
Its TGI is greater than 100 µM.

What about the TGI [2] of the same compound?
The TGI was greater than 100 µM.

What about the TGI [3] of the same compound?
Its TGI is greater than 100 µM.

And the TGI [4]?
The TGI was 70.7 µM.

What about the TGI [5] of the same compound?
The TGI was greater than 100 µM.

And the TGI [6]?
The TGI was 73.2 µM.

And the TGI [7]?
The TGI was greater than 100 µM.

And the TGI [8]?
The TGI was greater than 100 µM.

What about the TGI [9] of the same compound?
The TGI was greater than 100 µM.

And the TGI [10]?
The TGI was greater than 100 µM.

What about the TGI [11] of the same compound?
Its TGI is greater than 100 µM.

What about the TGI [12] of the same compound?
The TGI was greater than 100 µM.

And the TGI [13]?
Its TGI is greater than 100 µM.

What about the TGI [14] of the same compound?
Its TGI is greater than 100 µM.

And the TGI [15]?
Its TGI is greater than 100 µM.

What about the TGI [16] of the same compound?
Its TGI is greater than 100 µM.

And the TGI [17]?
Its TGI is greater than 100 µM.

What about the TGI [18] of the same compound?
Its TGI is greater than 100 µM.

What about the TGI [19] of the same compound?
Its TGI is greater than 100 µM.

And the TGI [20]?
The TGI was greater than 100 µM.

And the TGI [21]?
Its TGI is 68.1 µM.

And the TGI [22]?
The TGI was 98 µM.

What about the TGI [23] of the same compound?
Its TGI is greater than 100 µM.

And the TGI [24]?
The TGI was greater than 100 µM.

And the TGI [25]?
The TGI was greater than 100 µM.

And the TGI [26]?
Its TGI is 43.2 µM.

And the TGI [27]?
Its TGI is greater than 100 µM.

And the TGI [28]?
The TGI was greater than 100 µM.

What about the TGI [29] of the same compound?
The TGI was greater than 100 µM.

What about the TGI [30] of the same compound?
Its TGI is greater than 100 µM.

And the TGI [31]?
The TGI was greater than 100 µM.

What about the TGI [32] of the same compound?
The TGI was 87.5 µM.

What about the TGI [33] of the same compound?
The TGI was greater than 100 µM.

And the TGI [34]?
The TGI was greater than 100 µM.

And the TGI [35]?
Its TGI is greater than 100 µM.

What about the TGI [36] of the same compound?
Its TGI is greater than 100 µM.

And the TGI [37]?
The TGI was greater than 100 µM.

What about the TGI [38] of the same compound?
Its TGI is 91.1 µM.

And the TGI [39]?
Its TGI is greater than 100 µM.

What about the TGI [40] of the same compound?
The TGI was greater than 100 µM.

And the TGI [41]?
Its TGI is greater than 100 µM.

And the TGI [42]?
The TGI was greater than 100 µM.

What about the TGI [43] of the same compound?
The TGI was 55.1 µM.

What about the TGI [44] of the same compound?
Its TGI is greater than 100 µM.

And the TGI [45]?
The TGI was greater than 100 µM.

And the TGI [46]?
Its TGI is 97 µM.

And the TGI [47]?
Its TGI is greater than 100 µM.

And the TGI [48]?
Its TGI is 88.8 µM.

What about the TGI [49] of the same compound?
The TGI was greater than 100 µM.

And the TGI [50]?
The TGI was greater than 100 µM.

What about the TGI [51] of the same compound?
Its TGI is greater than 100 µM.

What about the TGI [52] of the same compound?
Its TGI is greater than 100 µM.

What about the TGI [53] of the same compound?
The TGI was greater than 100 µM.

What about the TGI [54] of the same compound?
The TGI was 96.1 µM.

What about the TGI [55] of the same compound?
Its TGI is greater than 100 µM.

Which results are given for `COc1cc2c(c(OC3OC(CO)C(O)C(O)C3O)c1)C(=O)CC(c1ccc(O)cc1)O2` (stereo not given)?
TGI [1]: > 100 µM; TGI [56]: > 100 µM; TGI [2]: > 100 µM; TGI [3]: > 100 µM; TGI [4]: > 100 µM; TGI [5]: > 100 µM; TGI [6]: > 100 µM; TGI [7]: > 100 µM; TGI [8]: > 100 µM; TGI [9]: > 100 µM; TGI [10]: > 100 µM; TGI [11]: > 100 µM; TGI [12]: > 100 µM; TGI [57]: > 100 µM; TGI [13]: > 100 µM; TGI [14]: > 100 µM; TGI [15]: > 100 µM; TGI [16]: > 100 µM; TGI [17]: > 100 µM; TGI [18]: > 100 µM; TGI [19]: > 100 µM; TGI [20]: > 100 µM; TGI [22]: > 100 µM; TGI [23]: > 100 µM; TGI [24]: > 100 µM; TGI [25]: > 100 µM; TGI [26]: > 100 µM; TGI [27]: > 100 µM; TGI [58]: > 100 µM; TGI [29]: > 100 µM; TGI [30]: > 100 µM; TGI [31]: > 100 µM; TGI [32]: > 100 µM; TGI [33]: > 100 µM; TGI [34]: > 100 µM; TGI [35]: > 100 µM; TGI [36]: > 100 µM; TGI [37]: > 100 µM; TGI [38]: > 100 µM; TGI [39]: > 100 µM; TGI [40]: > 100 µM; TGI [41]: > 100 µM; TGI [42]: > 100 µM; TGI [44]: > 100 µM; TGI [45]: > 100 µM; TGI [46]: > 100 µM; TGI [47]: > 100 µM; TGI [59]: > 100 µM; TGI [48]: > 100 µM; TGI [50]: > 100 µM; TGI [51]: > 100 µM; TGI [52]: > 100 µM; TGI [53]: > 100 µM; TGI [54]: > 100 µM; TGI [55]: > 100 µM

From PubChem BioAssay (NCI)
